Legend:
[1] = Stability of Compound 1 in vehicle stored at 55° C., amount determined by HPLC; type: physicochemical; details: for day 10, percentage based on the theoretical amount (250 μg/g): stored at 55° C.
Description: Compound 1 was dissolved in a vehicle shown in table 1 below to give 250 μg/g solution. Then, the solution was put in a hard grass container and heated at 55° C. The precise amount of Compound 1 in the solution was determined by means of HPLC (day 0). The container was kept at 55° C. for 10 days and after that the precise amount of the compound 1 was determined by means of HPLC (day 10).
The determination of the amount of the compound was carried out as follows. About 0.2 g of the sample was mixed with exactly 2 mL of internal standard solution and then with a dissolving agent shown in Table 1 to give 5 ml of sample solution. About 5 mg of the reference standard compound 1 was weighted precisely and added with acetonitrile to give exactly 50 mL solution. Exactly 1 ml of the solution was obtained and added with exactly 4 mL of the internal standard solution, and then added with the dissolving agent to give 10 mL of reference solution.
The fluorescent labeling agent was added to the respective solution, stirred and stood at room temperature for more than 30 minutes. After that, 2% acetic acid in acetonitrile was added to the solution, stirred and reacted at room temperature for more 30 minutes to give the sample and standard solutions. Then, the respective solution in an amount that theoretically gives 3.6 ng of compound 1 was loaded on the column and analyzed under the condition as follows:
(§1) Column: 5 mm×25 cm stainless steel column packed with octadecylsilane treated silica gel for HPLC (5 μm)
Mobile phase: mixture of acetonitrile (HPLC grade) and perchlorate buffer
(§2) Detector: spectrophotofluorometer
According to the same manner as described in Example 1, stability of the compound 1 in various vehicles was measured.

[2] = Stability of Compound 1 in soft gelatin capsules (sugar alcohol plasticizer) on storage, amount determined by HPLC; type: physicochemical
Description: Sugar alcohol solution derived from corn starch 60 parts by weight was added in an appropriate amount of water, stirred and heated. Then, gelatin 100 parts by weight was added thereto to give gelatin solution. Compound 1 was dissolved in medium chain fatty acid triglyceride (USP/NF grade) to give a liquid mixture containing 120 μg/g of compound 1. The gelatin solution and the liquid mixture were loaded on a soft capsule forming and filling machine to give capsule containing the liquid mixture, and dried to give soft gelatin capsule with an appropriate hardness.
The soft gelatin capsules obtained in the formulation example were kept at 40° C. for 6 months or at 55° C. for one month. After that, 20 capsules were swelled with purified water and ethyl acetate (HPLC grade) 10 ml was added thereto. The capsule was then cut opened and the liquid contained therein was obtained. 1 ml of the internal standard solution per 100 μg of theoretical amount of compound 1 was added to the liquid, and ethyl acetate (HPLC grade) was added so that the theoretical concentration of compound 1 was 10 μg/mL to give a sample solution.
On the other hand, about 0.025 g of standard Compound 1 was precisely weighted and added with ethyl acetate (HPLC grade) to give exactly 100 mL solution. 2 mL of the solution was measured, exactly 5 mL of the internal standard solution was added thereto and ethyl acetate (HPLC grade) was added so that the total amount was 50 mL to give the standard compound 1 solution.
The fluorescent labeling agent was added to the sample and standard solutions, stirred and reacted at room temperature.
The respective solution in an amount that theoretically gives 3.6 ng of compound 1 was loaded on the column and analyzed under the condition as follows: HPLC analysis condition:
as §1
Mobile phase: mixture of acetonitrile HPLC grade: methanol HPLC grade: ammonium acetate (0.05 mol/L)
as §2
The amount of the compound 1 in the sample solution was determined by using a one point calibration curve.

CCCCC(F)(F)C(=O)CCC1CCC(=O)C1CCCCCCC(=O)O (stereo not shown) [Compound 1, 11-deoxy-13,14-dihydro-15-keto-16,16-difluoro PGE1]
stability on admixing with a fatty acid ester ([1]; admixed with a fatty acid ester such as glyceride, 55° C., 10 days): significantly improved
stability in polyol, sugar, sugar alcohol, polyethylene glycol, polysorbate 80 and fatty acid ([1]; in polyol such as glycerine, sugar, sugar alcohol, polyethylene glycol, polysorbate 80, and fatty acid, 55° C., 10 days): poor
day 0, percentage based on the theoretical amount (250 μg/g) ([1]; no vehicle (compound 1 only), 55° C.): 95.4%
day 10, percentage based on the theoretical amount (250 μg/g) ([1]; no vehicle (compound 1 only)): 82.8%
day 0, percentage based on the theoretical amount (250 μg/g) ([1]; vehicle Macrogol 400 (polyethyleneglycol), 55° C.): 92.2%
day 10, percentage based on the theoretical amount (250 μg/g) ([1]; vehicle Macrogol 400 (polyethyleneglycol)): 80.7%
day 0, percentage based on the theoretical amount (250 μg/g) ([1]; vehicle concentrated glycerin, 55° C.): 20.9%
day 10, percentage based on the theoretical amount (250 μg/g) ([1]; vehicle concentrated glycerin): 20.0%
day 0, percentage based on the theoretical amount (250 μg/g) ([1]; vehicle corn oil, 250 μg/g solution, 55° C.): 93.1%
day 10, percentage based on the theoretical amount (250 μg/g) ([1]; vehicle corn oil, 250 μg/g solution): 94.8%
day 0, percentage based on the theoretical amount (250 μg/g) ([1]; vehicle glycerine fatty acid ester (Inwitor 742), 250 μg/g solution, 55° C.): 93.3%
day 10, percentage based on the theoretical amount (250 μg/g) ([1]; vehicle glycerine fatty acid ester (Inwitor 742), 250 μg/g solution): 96.4%
day 0, percentage based on the theoretical amount (250 μg/g) ([1]; vehicle hydrogenated maltose starch syrup, 55° C.): 5.1%
day 10, percentage based on the theoretical amount (250 μg/g) ([1]; vehicle hydrogenated maltose starch syrup): 3.5%
day 0, percentage based on the theoretical amount (250 μg/g) ([1]; vehicle isopropyl palmitate, 250 μg/g solution, 55° C.): 93.9%
day 10, percentage based on the theoretical amount (250 μg/g) ([1]; vehicle isopropyl palmitate, 250 μg/g solution): 96.7%
day 0, percentage based on the theoretical amount (250 μg/g) ([1]; vehicle medium chain fatty acid triglyceride (Miglyol 812N), 250 μg/g solution, 55° C.): 94.1%
day 10, percentage based on the theoretical amount (250 μg/g) ([1]; vehicle medium chain fatty acid triglyceride (Miglyol 812N), 250 μg/g solution): 97.0%
day 0, percentage based on the theoretical amount (250 μg/g) ([1]; vehicle oleic acid, 55° C.): 61.9%
day 10, percentage based on the theoretical amount (250 μg/g) ([1]; vehicle oleic acid): 51.6%
day 0, percentage based on the theoretical amount (250 μg/g) ([1]; vehicle polysorbate 80, 55° C.): 92.1%
day 10, percentage based on the theoretical amount (250 μg/g) ([1]; vehicle polysorbate 80): 64.5%
day 0, percentage based on the theoretical amount (250 μg/g) ([1]; vehicle propyleneglycol fatty acid ester (Rikemal PO-100V), 250 μg/g solution, 55° C.): 93.9%
day 10, percentage based on the theoretical amount (250 μg/g) ([1]; vehicle propyleneglycol fatty acid ester (Rikemal PO-100V), 250 μg/g solution): 92.1%
day 0, percentage based on the theoretical amount (250 μg/g) ([1]; vehicle soy oil, 250 μg/g solution, 55° C.): 98.2%
day 10, percentage based on the theoretical amount (250 μg/g) ([1]; vehicle soy oil, 250 μg/g solution): 94.6%
day 0, percentage based on the theoretical amount (250 μg/g) ([1]; vehicle sugar alcohol solution derived from corn starch, 55° C.): 3.8%
day 10, percentage based on the theoretical amount (250 μg/g) ([1]; vehicle sugar alcohol solution derived from corn starch): 5.6%
amounts of compound 1 (% vs day 0), Initial ([2]; soft gelatin capsule, gelatin 100 / sugar alcohol solution 60, 120 μg/g in medium chain fatty acid triglyceride, 40° C.): 100 % vs day 0
amounts of compound 1 (% vs day 0), Initial ([2]; soft gelatin capsule, gelatin 100 / sugar alcohol solution 60, 120 μg/g in medium chain fatty acid triglyceride, 55° C.): 100 % vs day 0
amounts of compound 1 (% vs day 0), 1 mo ([2]; soft gelatin capsule, gelatin 100 / sugar alcohol solution 60, 120 μg/g in medium chain fatty acid triglyceride, stored at 40° C., 1 mo): 99.8 % vs day 0
amounts of compound 1 (% vs day 0), 3 mo ([2]; soft gelatin capsule, gelatin 100 / sugar alcohol solution 60, 120 μg/g in medium chain fatty acid triglyceride, stored at 40° C., 3 mo): 98.0 % vs day 0
amounts of compound 1 (% vs day 0), 6 mo ([2]; soft gelatin capsule, gelatin 100 / sugar alcohol solution 60, 120 μg/g in medium chain fatty acid triglyceride, stored at 40° C., 6 mo): 98.8 % vs day 0
amounts of compound 1 (% vs day 0), 1 w ([2]; soft gelatin capsule, gelatin 100 / sugar alcohol solution 60, 120 μg/g in medium chain fatty acid triglyceride, stored at 55° C., 1 w): 100.2 % vs day 0
amounts of compound 1 (% vs day 0), 2 w ([2]; soft gelatin capsule, gelatin 100 / sugar alcohol solution 60, 120 μg/g in medium chain fatty acid triglyceride, stored at 55° C., 2 w): 100.1 % vs day 0
amounts of compound 1 (% vs day 0), 4 w ([2]; soft gelatin capsule, gelatin 100 / sugar alcohol solution 60, 120 μg/g in medium chain fatty acid triglyceride, stored at 55° C., 4 w): 99.5 % vs day 0
effect of sugar alcohol solution/polyol on stability when used as plasticizer ([2]; sugar alcohol solution/polyol used as plasticizer of soft gelatin capsule shell): will not affect the stability
